For the experiment, the target named is T1, LHRH receptors (Rattus norvegicus, UniProt P30969).
T1 construct: Pituitary membranes containing LHRH receptors are prepared in batches from quick-frozen rat pituitaries; tissue Hilltop Labs; host or cells: rat pituitary membranes
T1 sequence (P30969 1-327): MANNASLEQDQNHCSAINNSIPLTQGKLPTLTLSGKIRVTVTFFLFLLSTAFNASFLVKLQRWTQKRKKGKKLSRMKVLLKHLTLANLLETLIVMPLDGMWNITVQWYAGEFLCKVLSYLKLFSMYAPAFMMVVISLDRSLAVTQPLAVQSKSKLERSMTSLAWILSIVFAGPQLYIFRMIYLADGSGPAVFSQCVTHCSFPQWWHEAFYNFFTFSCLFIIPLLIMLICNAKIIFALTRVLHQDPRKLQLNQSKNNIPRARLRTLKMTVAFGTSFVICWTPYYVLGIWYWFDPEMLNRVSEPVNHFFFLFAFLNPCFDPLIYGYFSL
In words: Receptor Binding (radioligand receptor binding assay). As to conditions: rat pituitary membranes, 2 hours at 4° C.

Setting [1] is: table 3, radioiodinated [D-Leu^6 -des Gly^10 ]-LHRH ethyl amide 50 pM, read-out: Receptor Binding pkI (converted).
Setting [2] is: table 4, radioligand 50 pM, read-out: Receptor Binding pkI (converted).

Where two headings read alike, the source gives them in different places. Square brackets hold non-standard residues; d marks the D form. Peptide text beside a SMILES is read from it. * marks the point of attachment. Propanoyl(3-indol-3-yl) = O=C(CCc1c[nH]c2ccccc12)*; X8 = CN1CCN(S(=O)(=O)N[C@@H](Cc2ccccc2)C(=O)*)CC1; Propanoyl(3-(4-F-phenyl)) = O=C(CCc1ccc(F)cc1)*; Propanoyl(3-(4-Cl-Ph)) = O=C(CCc1ccc(Cl)cc1)*; d2Nal = N[C@H](Cc1ccc2ccccc2c1)C(=O)O; Lys(iPr) = CC(C)NCCCC[C@H](N)C(=O)O; NMeY = CN[C@@H](Cc1ccc(O)cc1)C(=O)O; d3Pal = N[C@H](Cc1cccnc1)C(=O)O; d2Thi = N[C@H](Cc1cccs1)C(=O)O; Nicotinoyl = O=C(c1cccnc1)*; Bn = c1ccc(C*)cc1

Take `CCNC(=O)[C@@H]1CCCN1C(=O)[C@H](CCCNC(=N)N)NC(=O)[C@H](CC(C)C)NC(=O)[C@@H](Cc1c[nH]c2ccccc12)NC(=O)[C@H](Cc1ccc(O)cc1)NC(=O)[C@H](CO)NC(=O)[C@H](Cc1c[nH]c2ccccc12)NC(=O)[C@H](Cc1ccccc1)NS(=O)(=O)N1CCN(C)CC1` [Compound 129, N-(N-alpha-(N-Methylpiperazinosulfonyl))-Phe-Trp-Ser-Tyr -D-Trp-Leu-Arg-ProNHEt] (X8-WSY[dW]LRP-NHEt): under setting [1], the Ki was 1.86 nM.
As to `CCNC(=O)[C@@H]1CCCN1C(=O)[C@H](CCCNC(=N)N)NC(=O)[C@H](CC(C)C)NC(=O)[C@@H](Cc1c[nH]c2ccccc12)NC(=O)[C@H](Cc1ccc(O)cc1)NC(=O)[C@H](CO)NC(=O)C(Cc1cccc2ccccc12)NC(C)=O` (single isomer, unassigned) [Compound 82, (3-9)[N-Ac-1-Nal^3 -D-Trp^6 -Pro^9 NHEt]LHRH], the Ki under setting [1] was 0.295 nM.
Under “Receptor Binding pkI, table 4, radioligand 50 pM”, `CC(C)C[C@H](NC(=O)[C@@H](CCCCN)NC(=O)[C@H](Cc1ccc(O)cc1)NC(=O)[C@H](COCc1ccccc1)NC(=O)[C@@H](Cc1cccs1)NC(=O)CCc1ccc(Cl)cc1)C(=O)N[C@@H](CCCNC(=N)N)C(=O)N1CCC[C@H]1C(=O)N[C@H](C)C(N)=O` [Compound 167, (3-10)[N-(3-(4-Chlorophenyl)propionyl)-D-Thia^3 -Ser(O-Bzl)^4 -D-Lys^6 -D-Ala^10]LHRH] ({Propanoyl(3-(4-Cl-Ph))}-[d2Thi]S(Bn)Y[dK]LRP[dA]-NH2) gave a Ki of 0.457 nM.
`CC(C)C[C@H](NC(=O)[C@@H](Cc1c[nH]c2ccccc12)NC(=O)[C@H](Cc1ccc(O)cc1)N(C)C(=O)[C@H](CO)NC(=O)[C@@H](Cc1c[nH]c2ccccc12)NC(=O)CCc1ccc(F)cc1)C(=O)N[C@@H](CCCNC(=N)N)C(=O)N1CCC[C@H]1C(=O)N[C@H](C)C(N)=O` [Compound 164, (3-10)[N-(3-(4-Fluorophenyl)propionyl)-D-Trp^3,6 -NMeTyr^5 -D-Ala^10]LHRH] ({Propanoyl(3-(4-F-phenyl))}-[dW]S[NMeY][dW]LRP[dA]-NH2): the Ki under setting [2] was 0.0537 nM.
For the compound `CC(C)C[C@H](NC(=O)[C@@H](CCCCNC(=O)c1cccnc1)NC(=O)[C@H](Cc1ccc(O)cc1)N(C)C(=O)[C@H](CO)NC(=O)[C@@H](Cc1cccnc1)NC(=O)CCc1ccc(Cl)cc1)C(=O)N[C@@H](CCCCNC(C)C)C(=O)N1CCC[C@H]1C(=O)N[C@H](C)C(N)=O` [Compound 194, (3-10)[N-(3-(4-Chlorophenyl)propionyl)-D-3-Pal^3 -NMeTyr^5 -D-Lys^6 (N-epsilon-nicotinyl)-Lys^8 (N-epsilon-isopropyl)-D-Ala^10]LHRH] ({Propanoyl(3-(4-Cl-Ph))}-[d3Pal]S[NMeY][dK](Nicotinoyl)L[Lys(iPr)]P[dA]-NH2), the Ki under setting [2] is 0.191 nM.
For the compound `CC(C)C[C@H](NC(=O)[C@@H](Cc1ccc2ccccc2c1)NC(=O)[C@H](Cc1ccc(O)cc1)NC(=O)[C@H](CO)NC(=O)CCc1c[nH]c2ccccc12)C(=O)N[C@@H](CCCNC(=N)N)C(=O)N1CCC[C@H]1C(=O)NCC(N)=O` [Compound 47, N-(3-(3-Indole)propionyl)-Ser-Tyr-D-2-Nal-Leu-Arg-Pro-Gly-NH2] ({Propanoyl(3-indol-3-yl)}-SY[d2Nal]LRPG-NH2), under setting [1], the Ki is 4.27 nM.
With `CCNC(=O)[C@@H]1CCCN1C(=O)[C@H](CCCNC(=N)N)NC(=O)[C@H](CC(C)C)NC(=O)[C@@H](Cc1c[nH]c2ccccc12)NC(=O)[C@H](Cc1ccc(O)cc1)NC(=O)[C@H](CO)NC(=O)[C@@H](Cc1c[nH]c2ccccc12)NC(=O)CCc1ccc(F)cc1` [Compound 91, (3-9)[N-(3-(4-Fluorophenyl)propionyl) -D-Trp^3,6 Pro^9 NHEt]LHRH] ({Propanoyl(3-(4-F-phenyl))}-[dW]SY[dW]LRP-NHEt), under setting [1], the Ki was 0.0288 nM.

Values taken from patent publication US5140009A (Tap Pharmaceuticals, Inc., priority 1990, dated 1992).
